Test results taken from US10286034B2, “Uses of bremelanotide in therapy for female sexual dysfunction” (Palatin Technologies, Inc., priority 2012, dated 2019).

Test: Subcutaneous trials in males: vomiting and tolerability
Assay type: in vivo, human
Settings: intramuscular administration, males

Cc1nccn1CC1CCc2c(c3ccccc3n2C)C1=O (stereo not shown) [ondansetron, reference compound]
effect on bremelanotide-induced vomiting: Vomiting could be resolved
